Earlier results on one compound are cited in article PMC2862725 (Molecular cancer therapeutics, 2009).

For data set [1] the following is noted: wild-type tumor group; set equal to single-dose PK/PD model ref 9.
For data set [2] the following is noted: vIII mutant tumor group; set equal to single-dose PK/PD model ref 9.
The conditions of data set [3]: n = 5, two patients with malignant gliomas.

Where two headings read alike, the source gives them in different places.

Consider `COc1cc2ncnc(Nc3ccc(F)c(Cl)c3)c2cc1OCCCN1CCOCC1` [gefitinib, Gefitinib], for which the “Vc volume of distribution of the central compartment” value was 75.0 mL in data set [1] and 103.8 mL in data set [2]. Moreover, the “gefitinib brain tumor concentration, mean” value in data set [3] was 9.4 ± 9.3 µg/g.
